# Measurements from ChEMBL document CHEMBL1201862, “PubChem BioAssay data set” (2004).
# The source made the active and inactive calls. Unless noted, the calls are words filed in the database; no cut-off is given here.
# Key:
# J774.A1 = assay: Confirmation of image-based Screening Assay for Inhibitors of Phagocytosis. [Related pubchem assays (depositor defined):AID1029, AID1643]; assay type: functional, cell-based; settings: Mus musculus
# HEK293 [1] = assay: cells; settings: Homo sapiens
# [2] = cytotoxicity in HEK-293T cells, dose response, cytotoxicity control for TCR NF-kB inhibitor project, luminescence, T-cell screen hits (AID 489026); assay type: functional, cell-based;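 further: cells exposed to compound about 14 hours before the viability readout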
# HEK293 [3] = assay: cells; settings: Homo sapiens; remark: listed apart in the source
# [4] = viability loss in HRASV12 DRD fibroblasts, dose response, cell-based, DRD BJ fibroblasts, dry powder (AID 493049); assay type: functional
# Paired box protein Pax-8 = Paired box protein Pax-8 (Homo sapiens, UniProt Q06710); assay: inhibitors of PAX8-driven TPO luciferase reporter, dose response, RMG-I cells, cherry-pick (AID 687027); assay type: functional, cell-based;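 further: luciferase reporter driven by Pax8 target thyroperoxidase promoter measured by SteadyGlo luminescence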
# [5] = SR lymphoma cell viability over time, late-stage follow-up, mechanism study for HRAS target identification, CellTiter-Glo ATP luminescence, 8-48 h, dry powder (AID 720608); assay type: functional, cell-based
# INS1 = assay: beta cell apoptosis inhibitors, cytokine rescue, dose response, luminescence, retest (AID 449756); assay type: functional, cell-based; settings: Rattus norvegicus;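 further: cell death triggered by IL-1 beta plus TNF-alpha plus IFN-gamma mixture; protective hits raise ATP signal compared with cytokine alone wells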
# [6] = cytotoxicity in BJeHLT fibroblasts, dose response, counter-screen for Ras selective lethality project, BJeHLT cells, dry powder (AID 493052); assay type: functional, cell-based; settings: Homo sapiens
# [7] = nonselective inhibitors of cellular cAMP signaling, dose response, counter-screen for MC4R biased antagonist project, cell-based, TR-FRET cAMP detection (AID 602305); assay type: functional;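 further: U2OS cells stimulated with forskolin near its EC80 as the cAMP inducer; potency is for inhibition of forskolin-stimulated cAMP signaling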
# BJ = assay: cytotoxicity toward Ras-transformed BJeLR fibroblasts, dose response, cell-based, alamar blue fluorescence, cherrypicked samples (AID 2631); assay type: functional; settings: Homo sapiens;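 further: confirmatory dose-response assay in RAS-dependent BJ fibroblasts engineered with TERT, LT and ST, with cytotoxicity read by fluorescence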
# [8] = C2C12 myoblast ATP-based viability loss, dose response, cytotoxicity control for HRAS target identification, cell-based, CellTiter-Glo ATP luminescence, 8/24/48 h, dry powder (AID 720603); assay type: functional
# [9] = LOX IMVI melanoma cell viability loss, dose response, HRAS target identification, CellTiter-Glo ATP luminescence, 8/24/48 h, dry powder (AID 720602); assay type: functional, cell-based
# [10] = growth suppression of beta-catenin-knockout colon cells, dose response, cell-based, HCT116, human colon tumor (AID 1045); assay type: functional;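 further: HCT116 colon tumor cells with beta catenin knocked out; cells exposed to compound for 60 hours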
# [11] = HUVEC endothelial cell viability loss, dose response, cytotoxicity control for HRAS target identification, CellTiter-Glo ATP luminescence, 8/24/48 h, dry powder (AID 720604); assay type: functional, cell-based
# Fatty acid synthase [12] = molecular target: T1, Fatty acid synthase (Homo sapiens, UniProt P49327); assay: FAS thioesterase domain inhibitors, dose response, biochemical, endpoint fluorescence intensity, uHTS hits (AID 624327); assay type: functional;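 further: fluorescence from hydrolysis of an O-methyl fluorescein acyl ester substrate by the enzyme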
# [13] = growth suppression of PTEN-null colon cells, dose response, cell-based, HCT116 PTEN knockout (AID 1047); assay type: functional;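 further: HCT116 colon tumor cells with PTEN knocked out; cells exposed to compound for 60 hours before readout; potency for loss of cell viability measured by luminescence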
# [14] = HT-29 colorectal cell cytotoxicity over time, dose response, HRas target identification project, CellTiter-Glo, multiple timepoints, dry powder (AID 720598); assay type: functional, cell-based
# [15] = HeLa cell viability over time, late-stage follow-up, mechanism study for HRAS target identification, CellTiter-Glo ATP luminescence, 8-48 h, dry powder (AID 720609); assay type: functional, cell-based
# [16] = molecular target: T2, Replicative DNA helicase DnaB (Mycobacterium tuberculosis, UniProt P9WMR3); assay: DnaB intein splicing inhibitors, dose response, biochemical, cell-free fluorescence (AID 449749); assay type: functional
# T2 sequence (P9WMR3 whole entry): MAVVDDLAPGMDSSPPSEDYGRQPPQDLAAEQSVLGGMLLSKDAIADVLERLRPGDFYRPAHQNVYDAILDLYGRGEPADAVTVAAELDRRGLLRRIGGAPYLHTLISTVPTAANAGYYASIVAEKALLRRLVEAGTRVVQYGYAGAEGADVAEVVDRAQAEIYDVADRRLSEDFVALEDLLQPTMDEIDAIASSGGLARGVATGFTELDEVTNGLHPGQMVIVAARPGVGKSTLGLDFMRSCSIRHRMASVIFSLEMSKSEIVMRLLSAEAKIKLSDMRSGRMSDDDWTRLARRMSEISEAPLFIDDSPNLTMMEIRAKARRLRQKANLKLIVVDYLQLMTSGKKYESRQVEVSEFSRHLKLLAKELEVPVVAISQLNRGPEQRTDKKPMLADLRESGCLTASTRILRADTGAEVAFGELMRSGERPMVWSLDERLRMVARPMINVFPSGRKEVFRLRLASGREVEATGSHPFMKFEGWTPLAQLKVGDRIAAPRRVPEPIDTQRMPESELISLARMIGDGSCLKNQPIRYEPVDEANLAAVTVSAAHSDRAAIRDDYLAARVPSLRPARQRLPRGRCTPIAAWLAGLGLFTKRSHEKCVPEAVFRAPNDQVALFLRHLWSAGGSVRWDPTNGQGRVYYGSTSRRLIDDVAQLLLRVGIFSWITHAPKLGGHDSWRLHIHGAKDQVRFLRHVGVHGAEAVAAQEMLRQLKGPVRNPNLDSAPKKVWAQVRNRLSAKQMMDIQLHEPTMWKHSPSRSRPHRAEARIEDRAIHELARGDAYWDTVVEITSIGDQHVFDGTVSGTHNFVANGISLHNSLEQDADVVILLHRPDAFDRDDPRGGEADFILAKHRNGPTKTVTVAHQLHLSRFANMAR
# [17] = U-251 glioblastoma cell viability loss, dose response, HRAS target identification, Alamar Blue fluorescence, 8/24/48 h, dry powder (AID 720605); assay type: functional, cell-based
# Melanocortin receptor 4 = Melanocortin receptor 4 (Homo sapiens, UniProt P32245); assay: MC4R antagonist potency on cAMP, dose response, cell-based, TR-FRET, biased antagonists (AID 602298); assay type: functional;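 further: antagonist potency against agonist-stimulated cAMP production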
# [18] = CCRF-CEM leukemia cell viability loss, dose response, HRAS target identification, CellTiter-Glo ATP luminescence, 8/24/48 h, dry powder (AID 720607); assay type: functional, cell-based
# Fatty acid synthase [19] = molecular target: T1, Fatty acid synthase; assay: FAS thioesterase domain inhibitors, dose response, biochemical, kinetic fluorescence intensity (AID 624326); assay type: functional;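 further: rate of fluorescence rise from hydrolysis of a fluorogenic O-methyl fluorescein ester substrate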
# Protein RecA = molecular target: T3, Protein RecA (Mycobacterium tuberculosis, UniProt P9WHJ3); assay: Fluorescence Cell-Free Homogeneous Dose Retest to Identify Inhibitors of RecA-Intein Splicing Activity. [Related pubchem assays (depositor defined):AID2097, AID2223, AID489010, AID492950]; assay type: functional
# T3 sequence (P9WHJ3 whole entry): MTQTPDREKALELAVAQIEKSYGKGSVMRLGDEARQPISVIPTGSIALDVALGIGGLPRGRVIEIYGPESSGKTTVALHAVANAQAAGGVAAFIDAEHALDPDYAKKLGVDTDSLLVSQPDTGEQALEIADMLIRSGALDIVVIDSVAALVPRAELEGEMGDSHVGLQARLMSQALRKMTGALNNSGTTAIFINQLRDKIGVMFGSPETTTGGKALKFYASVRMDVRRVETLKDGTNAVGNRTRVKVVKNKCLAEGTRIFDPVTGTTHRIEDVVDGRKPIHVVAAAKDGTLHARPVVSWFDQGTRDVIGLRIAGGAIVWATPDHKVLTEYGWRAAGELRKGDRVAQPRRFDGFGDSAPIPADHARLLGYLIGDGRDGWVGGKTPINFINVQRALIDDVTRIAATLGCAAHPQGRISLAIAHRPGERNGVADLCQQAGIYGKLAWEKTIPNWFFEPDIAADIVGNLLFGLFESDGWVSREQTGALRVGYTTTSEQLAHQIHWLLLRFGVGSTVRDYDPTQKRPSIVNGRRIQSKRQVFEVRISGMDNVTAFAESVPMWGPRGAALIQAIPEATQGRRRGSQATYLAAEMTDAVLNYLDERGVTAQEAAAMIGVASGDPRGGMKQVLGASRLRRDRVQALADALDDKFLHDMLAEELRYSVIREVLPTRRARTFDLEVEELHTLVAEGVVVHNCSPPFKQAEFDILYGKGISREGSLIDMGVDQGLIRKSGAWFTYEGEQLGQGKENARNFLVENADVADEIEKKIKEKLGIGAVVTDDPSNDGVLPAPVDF
# [20] = non-specific cell cytotoxicity, dose response, cytotoxicity control for PAX8 inhibitor project, plate reader, dry powder samples (AID 743021); assay type: functional, cell-based
# [21] = SNB-19 glioblastoma cell viability over time, late-stage follow-up, mechanism study for HRAS target identification, CellTiter-Glo ATP luminescence, 8-48 h, dry powder (AID 720611); assay type: functional, cell-based
# [22] = U-251 glioblastoma cell viability loss, late-stage follow-up, mechanism study for HRAS target identification, CellTiter-Glo ATP luminescence, several timepoints, dry powder (AID 720616); assay type: functional, cell-based
# [23] = viability loss in BJeLR (HRASV12) cells, primary screen, Ras selective lethality project, cell-based, Alamar Blue, dry powder (AID 493045); assay type: functional
# [24] = cytotoxicity in BJeH fibroblasts, dose response, counter-screen for Ras selective lethality project, BJeH cells, dry powder (AID 493054); assay type: functional, cell-based
# T1 sequence (P49327 whole entry, the tested form may be a part): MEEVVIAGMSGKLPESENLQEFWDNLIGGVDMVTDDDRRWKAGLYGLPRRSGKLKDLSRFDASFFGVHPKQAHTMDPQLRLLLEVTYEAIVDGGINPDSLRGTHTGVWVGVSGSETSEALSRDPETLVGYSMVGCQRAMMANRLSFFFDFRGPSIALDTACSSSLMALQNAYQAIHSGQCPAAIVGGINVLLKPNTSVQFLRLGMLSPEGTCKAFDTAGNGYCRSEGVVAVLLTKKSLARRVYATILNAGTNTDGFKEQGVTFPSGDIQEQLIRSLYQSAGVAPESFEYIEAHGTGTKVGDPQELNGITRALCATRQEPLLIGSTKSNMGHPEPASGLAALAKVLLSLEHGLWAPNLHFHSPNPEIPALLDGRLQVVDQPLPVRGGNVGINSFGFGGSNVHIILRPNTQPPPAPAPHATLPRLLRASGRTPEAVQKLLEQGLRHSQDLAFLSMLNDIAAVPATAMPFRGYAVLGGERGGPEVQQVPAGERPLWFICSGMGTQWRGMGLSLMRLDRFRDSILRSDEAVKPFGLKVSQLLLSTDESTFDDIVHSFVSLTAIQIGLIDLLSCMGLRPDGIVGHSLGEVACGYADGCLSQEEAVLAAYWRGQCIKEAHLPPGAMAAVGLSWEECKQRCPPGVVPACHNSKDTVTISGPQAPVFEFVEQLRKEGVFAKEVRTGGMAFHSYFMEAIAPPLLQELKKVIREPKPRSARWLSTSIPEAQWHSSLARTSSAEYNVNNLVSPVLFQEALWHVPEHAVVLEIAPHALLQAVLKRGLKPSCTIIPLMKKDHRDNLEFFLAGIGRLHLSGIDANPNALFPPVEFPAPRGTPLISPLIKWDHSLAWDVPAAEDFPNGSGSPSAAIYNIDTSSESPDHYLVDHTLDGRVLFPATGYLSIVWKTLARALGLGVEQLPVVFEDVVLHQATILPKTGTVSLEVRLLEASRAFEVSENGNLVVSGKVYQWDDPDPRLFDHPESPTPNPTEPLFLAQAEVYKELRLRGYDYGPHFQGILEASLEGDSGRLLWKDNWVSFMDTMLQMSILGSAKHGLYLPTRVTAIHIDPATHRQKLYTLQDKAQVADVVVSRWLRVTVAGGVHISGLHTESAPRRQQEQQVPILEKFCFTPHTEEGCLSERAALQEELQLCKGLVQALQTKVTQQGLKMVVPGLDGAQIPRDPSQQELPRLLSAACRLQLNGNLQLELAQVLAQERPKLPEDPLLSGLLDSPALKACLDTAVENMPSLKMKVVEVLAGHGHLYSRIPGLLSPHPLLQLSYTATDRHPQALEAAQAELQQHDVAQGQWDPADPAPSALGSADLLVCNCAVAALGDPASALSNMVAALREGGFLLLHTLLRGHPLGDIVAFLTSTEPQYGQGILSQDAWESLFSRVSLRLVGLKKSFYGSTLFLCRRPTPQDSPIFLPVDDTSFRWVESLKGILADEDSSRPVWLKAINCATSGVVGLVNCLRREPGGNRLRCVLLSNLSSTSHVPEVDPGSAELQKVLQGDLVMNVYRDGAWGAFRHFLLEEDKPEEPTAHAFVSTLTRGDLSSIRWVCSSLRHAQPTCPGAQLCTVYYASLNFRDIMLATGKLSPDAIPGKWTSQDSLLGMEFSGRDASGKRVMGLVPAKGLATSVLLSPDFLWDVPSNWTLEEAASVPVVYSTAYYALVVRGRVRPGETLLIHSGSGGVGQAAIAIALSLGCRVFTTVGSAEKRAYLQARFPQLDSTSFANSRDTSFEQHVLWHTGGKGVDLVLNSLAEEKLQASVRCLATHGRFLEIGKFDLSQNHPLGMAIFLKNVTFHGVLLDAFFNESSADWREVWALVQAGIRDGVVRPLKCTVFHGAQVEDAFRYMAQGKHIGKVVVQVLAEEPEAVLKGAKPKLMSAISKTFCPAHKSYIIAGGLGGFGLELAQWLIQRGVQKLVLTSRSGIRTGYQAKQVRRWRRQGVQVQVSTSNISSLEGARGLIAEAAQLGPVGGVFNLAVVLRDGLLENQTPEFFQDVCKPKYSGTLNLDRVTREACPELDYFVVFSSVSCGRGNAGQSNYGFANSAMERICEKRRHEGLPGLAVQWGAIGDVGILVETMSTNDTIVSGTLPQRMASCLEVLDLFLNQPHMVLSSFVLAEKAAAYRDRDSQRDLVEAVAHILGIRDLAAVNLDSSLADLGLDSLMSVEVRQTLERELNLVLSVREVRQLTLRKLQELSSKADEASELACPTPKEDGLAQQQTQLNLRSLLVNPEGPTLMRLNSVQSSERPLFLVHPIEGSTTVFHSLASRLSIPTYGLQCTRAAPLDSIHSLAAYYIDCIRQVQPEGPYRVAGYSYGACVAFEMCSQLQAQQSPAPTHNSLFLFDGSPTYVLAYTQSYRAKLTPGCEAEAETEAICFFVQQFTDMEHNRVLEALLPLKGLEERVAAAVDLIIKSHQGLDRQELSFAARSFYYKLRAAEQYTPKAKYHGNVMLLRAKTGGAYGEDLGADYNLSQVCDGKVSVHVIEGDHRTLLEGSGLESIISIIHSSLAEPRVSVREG
# Paired box protein Pax-8, sequence (Q06710 whole entry): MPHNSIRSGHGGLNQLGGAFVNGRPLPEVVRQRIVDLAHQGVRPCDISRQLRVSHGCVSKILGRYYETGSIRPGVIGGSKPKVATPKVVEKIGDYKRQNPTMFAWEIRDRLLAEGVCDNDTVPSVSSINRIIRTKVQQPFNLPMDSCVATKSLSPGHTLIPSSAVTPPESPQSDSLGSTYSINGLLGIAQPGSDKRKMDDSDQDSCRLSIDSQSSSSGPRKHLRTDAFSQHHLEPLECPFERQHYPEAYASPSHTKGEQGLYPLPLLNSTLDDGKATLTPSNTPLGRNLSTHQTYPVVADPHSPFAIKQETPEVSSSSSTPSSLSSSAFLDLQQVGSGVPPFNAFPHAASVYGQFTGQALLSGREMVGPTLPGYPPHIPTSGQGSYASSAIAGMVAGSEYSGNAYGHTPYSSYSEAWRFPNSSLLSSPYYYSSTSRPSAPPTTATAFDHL
# Melanocortin receptor 4, sequence (P32245 whole entry): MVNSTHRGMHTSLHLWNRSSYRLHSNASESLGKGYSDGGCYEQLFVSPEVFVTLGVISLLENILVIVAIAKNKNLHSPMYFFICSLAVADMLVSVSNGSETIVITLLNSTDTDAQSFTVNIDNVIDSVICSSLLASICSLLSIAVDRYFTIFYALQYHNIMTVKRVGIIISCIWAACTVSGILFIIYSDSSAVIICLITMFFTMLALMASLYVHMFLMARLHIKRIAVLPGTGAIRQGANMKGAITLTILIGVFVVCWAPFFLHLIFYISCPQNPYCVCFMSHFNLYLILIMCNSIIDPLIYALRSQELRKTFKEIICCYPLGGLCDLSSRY
structure (smiles),measurement,setting,value
Cc1ccc(C(=O)Nc2ncc(Cc3ccc(SC(F)F)cc3)s2)cc1,IC50,J774.A1,1750 nM (active)
same,EC50,HEK293 [1],> 59700 nM (inactive)
same,IC50,[2],> 80000 nM (inactive)
same,EC50,HEK293 [3],> 59700 nM (inactive)
COc1ccc(N(C(=O)CCl)C(C(=O)NCCc2ccccc2)c2cccs2)cc1Cl (stereo not given),AC50,[4],232 nM (active)
same,AC50,Paired box protein Pax-8,323 nM (active)
same,AC50,[5],69.4 nM (active)
same,AC50,INS1,2820 nM (active)
same,AC50,[6],847 nM (active)
same,IC50,[7],> 64600 nM (inactive)
same,EC50,BJ,167 nM (active)
same,AC50,[8],6070 nM (active)
same,AC50,[9],56.3 nM (active)
same,EC50,[10],765 nM (active)
same,AC50,[11],12000 nM (active)
same,IC50,Fatty acid synthase [12],10200 nM (active)
same,EC50,[13],1480 nM (active)
same,AC50,[14],296 nM (active)
same,AC50,[15],582 nM (active)
same,AC50,[16],1820 nM (active)
same,AC50,[17],57.2 nM (active)
same,IC50,Melanocortin receptor 4,> 64600 nM (inactive)
same,AC50,[18],133 nM (active)
same,IC50,Fatty acid synthase [19],10600 nM (active)
same,EC50,Protein RecA,240 nM (active)
same,AC50,[20],2160 nM (active)
same,AC50,[21],1180 nM (active)
same,AC50,[22],941 nM (active)
same,AC50,[23],249 nM (active)
same,AC50,[24],760 nM (active)
